Measurements published in patent US20170275298A1, “INHIBITORS OF THE RENAL OUTER MEDULLARY POTASSIUM CHANNEL” (Merck Sharp & Dohme Corp., priority 2014, published 2017).

Biological target: T1, hROMK (hKir1.1) (Homo sapiens, UniProt P48048)
T1 construct: expressed in transfected cells
T1 sequence (P48048 1-391): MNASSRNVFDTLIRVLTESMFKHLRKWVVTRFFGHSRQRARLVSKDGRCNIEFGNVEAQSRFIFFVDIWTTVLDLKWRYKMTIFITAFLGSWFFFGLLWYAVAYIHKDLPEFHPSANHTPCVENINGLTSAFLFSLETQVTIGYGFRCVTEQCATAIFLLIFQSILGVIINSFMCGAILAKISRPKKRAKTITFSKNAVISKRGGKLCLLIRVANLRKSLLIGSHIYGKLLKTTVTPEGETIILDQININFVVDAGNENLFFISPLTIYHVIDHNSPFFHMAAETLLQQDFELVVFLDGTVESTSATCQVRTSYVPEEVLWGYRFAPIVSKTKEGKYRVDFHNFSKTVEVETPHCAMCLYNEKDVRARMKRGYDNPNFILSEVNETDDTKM
Assay: Thallium Flux Assay (ROMK channel functional thallium flux assay)
Type: cell-based
Conditions: HEK293 cells stably expressing hROMK (hKir1.1); FluxOR thallium flux, FLIPR-Tetra, 30 min compound incubation; read-out: ROMK TI IC50
In short: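 HEK293 cells stably expressing hROMK (hKir1.1) loaded with FluxOR dye 90 min at ambient temperature, then compound 30 min before thallium/potassium stimulant (final 3 mM Tl/0.3 mM K). ROMK-sensitive flux defined by 3 μM standard inhibitor; data as % fluorescence change.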

| SMILES | IC50 |
| --- | --- |
| COc1nccc(N2CCC3(CCN(C[C@H](O)c4ccc5c(c4C)COC5=O)CC3)C2=O)n1 [Example 80, (R)-8-(2-hydroxy-2-(4-methyl-1-oxo-1,3-dihydroisobenzofuran-5-yl)ethyl)-2-(2-methoxypyrimidin-4-yl)-2,8-diazaspiro[4.5]decan-1-one] | 0.0143 µM |
| Cc1c([C@@H](O)CN2CCC3(CC2)CCN(c2ccc(OC(F)F)nc2)C3=O)ccc2c1COC2=O [Example 76, (R)-2-(6-(difluoromethoxy)pyridin-3-yl)-8-(2-hydroxy-2-(4-methyl-1-oxo-1,3-dihydroisobenzofuran-5-yl)ethyl)-2,8-diazaspiro[4.5]decan-1-one] | 0.32 µM |
| Cc1c([C@@H](O)CN2CCC3(CC2)CCN(c2ccc(=O)n(C(F)F)c2)C3=O)ccc2c1COC2=O [Example 54, (R)-2-(1-(difluoromethyl)-6-oxo-1,6-dihydropyridin-3-yl)-8-(2-hydroxy-2-(4-methyl-1-oxo-1,3-dihydroisobenzofuran-5-yl)ethyl)-2,8-diazaspiro[4.5]decan-1-one] | 0.293 µM |
| Cc1c([C@@H](O)CN2CCC3(CC2)CCN(c2cc(C(F)(F)F)ncn2)C3=O)ccc2c1COC2=O [Example 87, (R)-8-(2-hydroxy-2-(4-methyl-1-oxo-1,3-dihydroisobenzofuran-5-yl)ethyl)-2-(6-(trifluoromethyl)pyrimidin-4-yl)-2,8-diazaspiro[4.5]decan-1-one] | 0.643 µM |
| COc1cc(N2CC3(CCN(C[C@H](O)c4ccc5c(c4C)COC5=O)CC3)CC2=O)ccn1 [Example 84, (R)-8-(2-hydroxy-2-(4-methyl-1-oxo-1,3-dihydroisobenzofuran-5-yl)ethyl)-2-(2-methoxypyridin-4-yl)-2,8-diazaspiro[4.5]decan-3-one] | 0.149 µM |
| Cc1c([C@@H](O)CN2CCC3(CC2)CCN(c2ccc(=O)n(C)n2)C3)ccc2c1COC2=O [Example 11, (R)-6-(8-(2-hydroxy-2-(4-methyl-1-oxo-1,3-dihydroisobenzofuran-5-yl)ethyl)-2,8-diazaspiro[4.5]decan-2-yl)-2-methylpyridazin-3(2H)-one] | 0.0676 µM |
| Cc1c([C@@H](O)CN2CCC3(CCCN(c4ccc(=O)n(C)n4)C3=O)CC2)ccc2c1COC2=O [Example 29, (R)-9-(2-hydroxy-2-(4-methyl-1-oxo-1,3-dihydroisobenzofuran-5-yl)ethyl)-2-(1-methyl-6-oxo-1,6-dihydropyridazin-3-yl)-2,9-diazaspiro[5.5]undecan-1-one] | 0.145 µM |
| O[C@@H](CN1CCC2(CC1)CCN(c1cnc(Cl)cn1)CC2)c1ccc(-n2cnnn2)nc1 [Example 135, (R)-1-(6-(1H-tetrazol-1-yl)pyridin-3-yl)-2-(9-(5-chloropyrazin-2-yl)-3,9-diazaspiro[5.5]undecan-3-yl)ethanol] | 0.875 µM |
| Cn1nc(N2CCC3(CCN(CCc4ccc(-n5cnnn5)nc4)CC3)C2=O)ccc1=O [Example 22, 8-(2-(6-(1H-tetrazol-1-yl)pyridin-3-yl)ethyl)-2-(1-methyl-6-oxo-1,6-dihydropyridazin-3-yl)-2,8-diazaspiro[4.5]decan-1-one] | 0.42 µM |

More lines, in order of falling IC50, values ahead:

| IC50 | SMILES |
| --- | --- |
| 0.787 µM | COc1nccc(N2CCC3(CCN(C[C@H](O)c4ccc(-n5cnnn5)nc4C)CC3)C2=O)n1 [Example 89, (R)-8-(2-hydroxy-2-(2-methyl-6-(1H-tetrazol-1-yl)pyridin-3-yl)ethyl)-2-(2-methoxypyrimidin-4-yl)-2,8-diazaspiro[4.5]decan-1-one] |
| 0.697 µM | COc1ccncc1N1CCC2(CCN(C[C@H](O)c3ccc4c(c3C)COC4=O)CC2)C1=O [Example 77, (R)-8-(2-hydroxy-2-(4-methyl-1-oxo-1,3-dihydroisobenzofuran-5-yl)ethyl)-2-(4-methoxypyridin-3-yl)-2,8-diazaspiro[4.5]decan-1-one] |
| 0.553 µM | Cc1cc(N2CCC3(CCN(C[C@H](O)c4ccc5c(c4C)COC5=O)CC3)CC2)nnc1Cl [Example 130, (R)-5-(2-(9-(6-chloro-5-methylpyridazin-3-yl)-3,9-diazaspiro[5.5]undecan-3-yl)-1-hydroxyethyl)-4-methylisobenzofuran-1(3H)-one] |
| 0.521 µM | Cc1c([C@@H](O)CN2CCC3(CC2)CCN(c2ccnc(N(C)C)n2)C3=O)ccc2c1COC2=O [Example 43, (R)-2-(2-(dimethylamino)pyrimidin-4-yl)-8-(2-hydroxy-2-(4-methyl-1-oxo-1,3-dihydroisobenzofuran-5-yl)ethyl)-2,8-diazaspiro[4.5]decan-1-one] |
| 0.17 µM | Cc1c([C@@H](O)CN2CCC3(CC2)CCN(c2ccnnc2)CC3)ccc2c1COC2=O [Example 142, (R)-5-(1-hydroxy-2-(9-(pyridazin-4-yl)-3,9-diazaspiro[5.5]undecan-3-yl)ethyl)-4-methylisobenzofuran-1(3H)-one] |
| 0.077 µM | CCn1nc(N2CCC3(CCN(C[C@H](O)c4ccc5c(c4C)COC5=O)CC3)C2=O)ccc1=O [Example 51, (R)-2-(1-ethyl-6-oxo-1,6-dihydropyridazin-3-yl)-8-(2-hydroxy-2-(4-methyl-1-oxo-1,3-dihydroisobenzofuran-5-yl)ethyl)-2,8-diazaspiro[4.5]decan-1-one] |
| 0.0614 µM | Cc1c([C@@H](O)CN2CCC3(CC2)CCN(c2sncc2Br)C3=O)ccc2c1COC2=O [Example 103, (R)-2-(4-bromoisothiazol-5-yl)-8-(2-hydroxy-2-(4-methyl-1-oxo-1,3-dihydroisobenzofuran-5-yl)ethyl)-2,8-diazaspiro[4.5]decan-1-one] |
| 0.0371 µM | Cc1ccc(N2CCC3(CCN(C[C@H](O)c4ccc5c(c4C)COC5=O)CC3)CC2)nn1 [Example 124, (R)-5-(1-hydroxy-2-(9-(6-methylpyridazin-3-yl)-3,9-diazaspiro[5.5]undecan-3-yl)ethyl)-4-methylisobenzofuran-1(3H)-one] |
